# Measurements published in patent publication US10654834B2 (Venenum Biodesign, LLC, priority 2016, dated 2020).
# Experiments:
# mouse TGR5 receptor = target: T1, mouse TGR5 receptor (Mus musculus, UniProt Q80SS6); test: Mouse TGR5 luminescent cAMP production assay (HEK293-EBNA cells, DiscoveRx cAMP XS+ kit); assay type: cell-based; details: HEK293-EBNA cells overexpressing mouse TGR5, luminescent cAMP assay; read-out: Mouse TGR5 Lum. cAMP Activity (EC50)
# T1 construct: host or cells: HEK293-EBNA (293 c18, ATCC CRL10852)
# T1 sequence (Q80SS6 1-329): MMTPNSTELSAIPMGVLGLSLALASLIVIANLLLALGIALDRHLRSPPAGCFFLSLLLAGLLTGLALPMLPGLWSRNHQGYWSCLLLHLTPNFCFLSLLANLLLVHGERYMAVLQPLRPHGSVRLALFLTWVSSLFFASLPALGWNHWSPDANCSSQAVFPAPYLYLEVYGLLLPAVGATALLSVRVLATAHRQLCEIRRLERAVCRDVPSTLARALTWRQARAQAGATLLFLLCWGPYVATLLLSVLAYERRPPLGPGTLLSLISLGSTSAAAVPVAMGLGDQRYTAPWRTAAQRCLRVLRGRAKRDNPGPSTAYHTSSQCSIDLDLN
# Summary of the method: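 HEK293-EBNA cells stably expressing mouse TGR5, resuspended in serum-free DMEM with 500 μM IBMX, were premixed 20 min with cAMP antibody, then exposed to half-log compound dilutions for 1 h at room temperature. cAMP was read by luminescent enzyme-fragment complementation (cAMP XS+) after overnight incubation; EC50 derived.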
# Mouse STC-1 cells = test: STC-1 GLP-1 assay (GLP-1 secretion); assay type: cell-based; details: Mouse STC-1 cells, GLP-1 secretion, 2 h; read-out: Mouse STC-1 HTRF GLP-1 Activity (EC50)
# Description: Compounds of the present invention were evaluated for their ability to induce GLP-1 production in mouse intestinal neuroendocrine tumor cells.
# Mouse STC-1 cells were cultured and maintained in high glucose DMEM (Sigma #5796) supplemented with 15% horse serum, 5% Fetal Bovine Serum (FBS), 1%° penicillin/streptomycin, and 2 mM L-alanine L-glutamine (GlutaMax). Two days prior to analysis of GLP-1 secretion cells were harvested using Accutase (Sigma), spun down then resuspended in high glucose DMEM media containing 2 mM L-alanine L-glutamine (GlutaMax), 10% charcoal-dextran stripped FBS, and 50 μg/mL Gentamicin, at a density of 100,000° cells/mL. 100 μL of cell suspension was added to each well of a 96-well Poly-D-Lysine coated culture plate (Sigma; cat #2382493) and was incubated at 37° C. with 5% CO2.
# Compounds were initially diluted in 100% DMSO (12-point serial dilution by half logs) in a 96-well plate and then were further diluted 1:500 in Hanks' Balanced Salt Solution (HBSS) containing protease inhibitor cocktail, DPP-IV inhibitor, and 0.1% fatty acid free bovine serum albumin. On the day of the experiment cells were washed once with HBSS. After wash, 100 μL of test compound was added to each well. The plate was incubated at 37° C. with 5% CO2 for 2° h. Supernatants were collected and GLP-1 secretion was measured using the Cisbio™ Active GLP-1 HTRF Assay Kit (CisBio). Briefly, Anti-GLP-1-d2 conjugate and Anti-GLP-1 Terbium Cryptate conjugate stock solutions were prepared as per kit instructions. The two solutions were pre-mixed and 10 μL were transferred to a 384-well low volume plate (Greiner; cat #784075). 10 μL of collected supernatants were added to wells already containing the conjugate solution. The plate was covered and incubated at room temperature overnight. The plate was read on an Envision™ plate reader (PerkinElmer).
# In Table 53, EC50 values were obtained from the STC-1 GLP-1 production assay for compounds of the present invention are summarized.
# human TGR5 receptor = target: T2, human TGR5 receptor (Homo sapiens, UniProt Q8TDU6); test: Human TGR5 cAMP production assay (hTGR5-CHO cells, DiscoveRx cAMP XS+ kit); assay type: cell-based; details: luminescent cAMP assay, read-out: Human TGR5 Lum. cAMP Activity (EC50)
# T2 construct: host or cells: CHO-K1 (hTGR5-CHO)
# T2 sequence (Q8TDU6 1-330): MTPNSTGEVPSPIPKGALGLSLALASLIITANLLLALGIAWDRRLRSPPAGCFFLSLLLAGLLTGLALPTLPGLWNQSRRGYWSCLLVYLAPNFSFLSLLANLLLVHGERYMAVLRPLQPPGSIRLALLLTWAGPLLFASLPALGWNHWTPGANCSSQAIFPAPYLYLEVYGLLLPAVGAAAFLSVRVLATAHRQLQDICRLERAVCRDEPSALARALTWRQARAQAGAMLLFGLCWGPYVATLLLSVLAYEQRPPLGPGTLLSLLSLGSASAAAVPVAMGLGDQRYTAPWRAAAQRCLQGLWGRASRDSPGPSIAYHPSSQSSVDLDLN
# Summary of the method: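 CHO-K1 cells stably expressing hTGR5, in PBS with IBMX and cAMP antibody, treated with half-log compound dilutions for 1 h at room temperature. cAMP measured by enzyme-fragment complementation luminescence after overnight detection; EC50 values reported.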
# [1] = Pharmacokinetic profile in mice after oral gavage; assay type: in vivo, mouse; details: mouse; fasted male Hilltop mice, 10 mg/kg oral gavage, plasma; read-out: Cmax
# Description: Pharmacokinetic Profile in Mice
# In this series of studies, the pharmacokinetic profile characteristics of compounds of the present invention were evaluated. The plasma concentration levels of the compounds were monitored in the blood stream (i.e., plasma) after oral gavage using Cmax, and area under the curve (AUC).
# 8 week old male Hilltop mice were fasted overnight. Animals were randomized into groups (n=9) by body weight. Mice were dosed with 10 mg/kg compound (in 20% PEG400/80% 0.5% carboxymethylcellulose (medium viscosity)+0.25% Tween-80) at a volume of […] through oral gavage. Blood was collected via orbital bleeding at 0, 0.25, 0.5, 1, 2, and 4 h post-dose, with no one mouse having more than 3 blood draws. Blood was collected in EDTA coated tubes. Samples were stored at −20° C. until analysis.
# Quantitation of compound levels in plasma was accomplished by LC-MS/MS analysis. Standard curve and quality control samples were prepared in male CD-1 mouse plasma containing EDTA K^2+ as an anticoagulant at final concentrations ranging from 500 to 0.1 ng/mL. The plasma samples, calibration curve standards, and quality control samples were prepared in an identical method in a 96-well deep plate (1 mL) with a quenching solution (1:1 mixed acetonitrile:methanol containing the internal standard Reserpine @ 400 ng/mL). Low volume samples were supplemented with CD-1 mouse plasma. The plate was mixed on multi-tube vortexer for 1 min and centrifuged at 4000 rpm for 30 min at 4° C. (Sorvall® Super T21) before LC-MS/MS analysis. LC conditions were developed and optimized based on each compound as needed. The outlet of the column was coupled to AB Sciex 4000 QTrap Mass Spectrometer (AB Sciex, Brugg Switzerland). Detection was carried out using multiple reaction monitoring mode with positive-ion detection focusing. The pharmacokinetic parameters were derived from the plasma-time data and calculated using the standard non-compartmental method with WinNonlin (Pharsight, Mountain View, Calif.) or PK Solver (Comp. Meth. Prog. Biomed. (2010), 99, 306-314).
# Values reported are the mean plasma concentration of three mice. […]
Compound,EC50 (mouse TGR5 receptor),EC50 (Mouse STC-1 cells),EC50 (human TGR5 receptor),Cmax [1]
"N#Cc1ccc(CCNC(=O)[C@@H]2C[C@@H](O)CN2c2cc(N3CCC(CCO)CC3)nc(C(F)(F)F)n2)cc1 [Compound 210, (2S,4R)—N-(4-cyanophenethyl)-4-hydroxy-1-(6-(4-(2-hydroxyethyl)piperidin-1-yl)-2-(trifluoromethyl)pyrimidin-4-yl)pyrrolidine-2-carboxamide]",0.1 to 0.999 µM,,0.1 to 0.999 µM,54 ng/mL
"O=C(NCCc1ccc(C(F)(F)F)cc1)[C@@H]1CCCN(c2cc(N3CCC(CO)CC3)nc(C(F)(F)F)n2)C1 [Compound 329, (R)-1-(6-(4-(hydroxymethyl)piperidin-1-yl)-2-(trifluoromethyl)pyrimidin-4-yl)-N-(4-(trifluoromethyl)-phenethyl)piperidine-3-carboxamide]",< 0.1 µM,0.1 to 0.999 µM,< 0.1 µM,
"O=C(NCCc1ccc(C(F)(F)F)cc1)[C@@H]1CCCN1c1cc(OC2CCOCC2)nc(C(F)(F)F)n1 [Compound 40, (S)-1-(6-((tetrahydro-2H-pyran-4-yl)oxy)-2-(trifluoromethyl)pyrimidin-4-yl)-N-(4-(trifluoromethyl)phenethyl)pyrrolidine-2-carboxamide]",< 0.1 µM,0.1 to 0.999 µM,< 0.1 µM,
CN(C)CC1CCN(c2cc(N3CCC[C@H]3C(=O)NCCc3ccc(C#N)cc3)nc(C(F)(F)F)n2)CC1 [Compound 19],< 0.1 µM,1 to 30 µM,0.1 to 0.999 µM,
"N#Cc1ccc(CCNC(=O)[C@@H]2CCCN2c2cc(-c3ccc(CO)cc3)nc(C(F)(F)F)n2)cc1 [Compound 146, (S)-N-(4-cyanophenethyl)-1-(6-(4-(hydroxymethyl)phenyl)-2-(trifluoromethyl)pyrimidin-4-yl)pyrrolidine-2-carboxamide]",< 0.1 µM,1 to 30 µM,< 0.1 µM,
"N#Cc1ccc(CCNC(=O)[C@@H]2CCCN2c2cc(OC3CCOCC3)nc(C(F)(F)F)n2)cc1 [Compound 41, (S)-N-(4-cyanophenethyl)-1-(6-((tetrahydro-2H-pyran-4-yl)oxy)-2-(trifluoromethyl)pyrimidin-4-yl)pyrrolidine-2-carboxamide]",< 0.1 µM,0.1 to 0.999 µM,< 0.1 µM,
"N#Cc1ccc(CCNC(=O)[C@@H]2CCCN2c2cc(N3CCC(CN)CC3)nc(C(F)(F)F)n2)cc1 [Compound 47, (S)-1-(6-(4-(aminomethyl)piperidin-1-yl)-2-(trifluoromethyl)pyrimidin-4-yl)-N-(4-cyanophenethyl)pyrrolidine-2-carboxamide]",0.1 to 0.999 µM,1 to 30 µM,< 0.1 µM,

# Second part, the compound after the results:
EC50 (mouse TGR5 receptor),EC50 (Mouse STC-1 cells),EC50 (human TGR5 receptor),Cmax [1],Compound
< 0.1 µM,0.1 to 0.999 µM,< 0.1 µM,,"N#Cc1ccc(CCNC(=O)[C@@H]2CCCN(c3cc(N4CCC(CCO)CC4)nc(C(F)(F)F)n3)C2)cc1 [Compound 309, (R)-N-(4-cyanophenethyl)-1-(6-(4-(2-hydroxyethyl)piperidin-1-yl)-2-(trifluoromethyl)pyrimidin-4-yl)piperidine-3-carboxamide]"
< 0.1 µM,0.1 to 0.999 µM,0.1 to 0.999 µM,,"CS(=O)(=O)c1ccc(-c2cc(N3CCC[C@H]3C(=O)NCCc3ccc(C#N)cc3)nc(C(F)(F)F)n2)cc1 [Compound 152, (S)-N-(4-cyanophenethyl)-1-(6-(4-(methylsulfonyl)phenyl)-2-(trifluoromethyl)pyrimidin-4-yl)pyrrolidine-2-carboxamide]"
< 0.1 µM,< 0.1 µM,< 0.1 µM,,"O=C(NCCc1ccc(C(F)(F)F)cc1)[C@@H]1CCN1c1cc(N2CCC(CO)CC2)nc(C(F)(F)F)n1 [Compound 220, (S)-1-(6-(4-(hydroxymethyl)piperidin-1-yl)-2-(trifluoromethyl)pyrimidin-4-yl)-N-(4-(trifluoromethyl)-phenethyl)azetidine-2-carboxamide]"
< 0.1 µM,0.1 to 0.999 µM,< 0.1 µM,,"O=C(NCCc1ccc(C(F)(F)F)cc1)[C@@H]1CCCN1c1cc(N2CCC(CO)CC2)nc(C(F)(F)F)n1 [Compound 2, (S)-1-(6-(4-(hydroxymethyl)piperidin-1-yl)-2-(trifluoromethyl)pyrimidin-4-yl)-N-(4-(trifluoromethyl)-phenethyl)pyrrolidine-2-carboxamide]"
